These results are taken from patent publication US5541179A, “Tropon-2-one piperazine carboxamides as serotonergic agents” (American Home Products Corporation, priority 1995, dated 1996).

The target in assay [1] is T1, 5-HT1A serotonin receptor (Rattus norvegicus, UniProt P19327).
T1 construct: from tissue
T1 sequence (P19327 1-422): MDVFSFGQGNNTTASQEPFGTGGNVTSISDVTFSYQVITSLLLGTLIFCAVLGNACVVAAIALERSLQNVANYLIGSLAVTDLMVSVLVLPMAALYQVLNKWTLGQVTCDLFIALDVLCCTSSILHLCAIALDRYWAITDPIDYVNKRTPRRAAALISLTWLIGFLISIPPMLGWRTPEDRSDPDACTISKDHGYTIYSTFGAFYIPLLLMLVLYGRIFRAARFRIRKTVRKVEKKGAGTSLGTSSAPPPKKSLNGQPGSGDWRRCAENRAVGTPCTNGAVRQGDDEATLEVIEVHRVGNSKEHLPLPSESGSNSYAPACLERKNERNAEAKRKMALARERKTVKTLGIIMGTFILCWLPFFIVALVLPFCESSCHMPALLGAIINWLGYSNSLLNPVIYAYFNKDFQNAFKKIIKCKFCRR
The note with it: qualitative statement on reference standard; cited from earlier work.

Assay [2] addresses T1, 5-HT1A serotonin receptor. The assay is described as follows: 5-HT1A receptor binding, displacement of [^3 H]8-OHDPAT (procedure of Hall et al., J. Neurochem. 44, 1685 (1985)).
Excerpt: High affinity for the serotonin 5-HT1A receptor was established by testing the claimed compound's ability to displace [^3 H]8-OHDPAT (dipropylaminotetralin) from the 5-HT1A serotonin receptor following the procedure of Hall et al., J. Neurochem.

SMILES strings stand for the structures.

In the case of `O=C1CC2(CCCC2)CC(=O)N1CCCCN1CCN(c2ncccn2)CC1` [Buspirone], in assay [1], the “affinity for the 5-HT1A serotonin receptor subtype of the standard (in words)” value was “potent affinity”.
In the case of `C[C@H](CN1CCN(c2cccccc2=O)CC1)N(C(=O)C1CCCCC1)c1ccccn1` [Example 4, Cyclohexanecarboxylic acid (R)-{1-methyl-2-[4-(7-oxo-cyclohepta-1,3,5-trienyl)-piperazin-1-yl]-ethyl}-(pyrilin-2-yl)-amide], the 50% inhibitory concentration (IC50) in assay [2] was 351 nM.
Still for that read-out and setting: the value for `C[C@H](CN1CCN(c2cccccc2=O)CC1)N(C(=O)C1CC=CCC1)c1ccccn1` (stereo partly drawn) [Example 3, Cyclohex-3-enecarboxylic acid (R)-{1-methyl-2-[4-(7-oxo-cyclohepta-1,3,5-trienyl)-piperazin-1-yl]-ethyl}-(pyridin-2-yl)-amide] was 861 nM.
The same measure, in the same setting: the result for `O=C(C(CCN1CCN(c2cccccc2=O)CC1)c1ccccc1)N1CCCCCC1` (centres unmarked) [Example 1, 2-[4-(4-Azepan-1-yl-4-oxo-3-phenyl-butyl)-piperazin-1-yl]-cyclohepta-2,4,6-trienone] reads 18.6 nM.
In assay [2], `C[C@H](CN1CCN(c2cccccc2=O)CC1)Nc1ccccn1` [Example 2, (R)-2-{4-[2-(Pyridin-2-ylamino)-propyyl}-piperazin-1-yl}-cyclohepta-2,4,6trienone] returned a concentration for half-maximal inhibition (IC50) of 19.8 nM.
